This is an account of results in US9056104B2, “Dynamic inhibitors of heat shock protein 90” (THE UNIVERSITY OF KANSAS, priority 2011, dated 2015).

For series [1], the system named is HSP90-dependent client proteins (Her-2, Raf, Akt). The series is described as follows: Western blot analyses of HSP90 client protein degradation in MCF-7 breast cancer cells. The format is cell-based. The conditions noted are these: MCF-7 lysates, 24 hour treatment, 5x and 1/2 of antiproliferative IC50. How it is done: Since actin is not dependent on HSP90 for its maturation, actin levels should remain constant after treatment with an HSP90 inhibitor and is therefore used as a control. […] L represents a concentration ½ of the anti-proliferative IC50 value while H represents a concentration 5 times greater than the anti-proliferative IC50 value. GDA (500 nM) represents a positive control, while DMSO (0), vehicle, serves as the negative control. […]
A general note: Immunoblotting shows a protein as a band on a membrane.

Series [2] has as its system A549 (human lung adenocarcinoma epithelial). Put plainly: Anti-proliferative activity against A549 cells. It counts as cell-based. How it is done: (§1) Once synthesized, the library of coumermycin A1 analogs containing the olefinic and saturated linkers, were evaluated for anti-proliferative activity against SKBr3 (estrogen receptor negative, Her2 over-expressing breast cancer cells), MCF-7 (estrogen receptor positive breast cancer cells), A549 (human lung adenocarcinoma epithelial), HT29 (Human colon adenocarcinoma grade II), and PC3mm2 (androgen receptor insensitive prostate cancer) cell lines. The activities produced provide insight into the optimal distance between binding sites and provide rationale for subsequent analog design. […] As shown, X is at the 6 position and Y is at the 8 position.

Series [3] concerns MCF-7 (estrogen receptor positive breast cancer cells). The series is described as follows: Anti-proliferative activity against MCF-7 cells. It counts as cell-based. The conditions noted are these: mean ± SD. As for the experimental part: (§2) Once synthesized, the library of coumermycin A1 analogs containing the olefinic and saturated linkers, were evaluated for anti-proliferative activity against SKBr3 (estrogen receptor negative, Her2 over-expressing breast cancer cells), MCF-7 (estrogen receptor positive breast cancer cells), A549 (human lung adenocarcinoma epithelial), HT29 (Human colon adenocarcinoma grade II), and PC3mm2 (androgen receptor insensitive prostate cancer) cell lines. […] As shown, X is at the 6 position and Y is at the 8 position.

The test system of series [4] is HT29 (Human colon adenocarcinoma grade II). Put plainly: Anti-proliferative activity against HT29 cells. The format is cell-based. How it is done:
as §1

In series [5] the test system is PC3mm2 (androgen receptor insensitive prostate cancer). The series is described as follows: Anti-proliferative activity against PC3mm2 cells. It counts as cell-based. As for the experimental part:
as §1

Series [6] deals with SKBr3 (estrogen receptor negative, Her2 over-expressing breast cancer cells). The series is described as follows: Anti-proliferative activity against SKBr3 cells. It counts as cell-based. As to conditions: mean ± SD. How it is done:
as §2

The test system of series [7] is prostate cancer (PC3mm2, A549 and HT29) cell lines. Put plainly: Anti-proliferative activity against prostate cancer cell lines (collective statements). The format is cell-based. How it is done: as §1
(§3) The first series of analogs included compounds with simplified moieties in lieu of the noviose sugar, while subsequent analogs included varying coumarin, noviose, and tether modifications. Many of these coumermycin A1 analogs manifested potent anti-proliferative activity that correlated directly to HSP90 inhibition as evidenced by the degradation of HSP90-dependent client proteins. Replacement of the laborious, stereochemical complex, and expensive noviose sugar with commercially available piperidine moieties produced compounds that manifested ˜100-fold increase in antiproliferative activities.

The subject of series [8] is prostate cancer (PC3mm2) cell lines. Described as above. The format is cell-based. The conditions noted are these: low nanomolar, prostate cancers; read-out: anti-proliferative activities against prostate cancers. As for the experimental part:
as §1, §3

Series [9] concerns cancer cells. As to conditions: cited from earlier work; for IC50: previously found, background, read-out: IC50 against cancer cells (anti-proliferative activity).
The nature of series [10]: Solubility in DMSO. The format is physicochemical.
Series [11] relates to breast cancer (SKBr3 and MCF7) cell lines. The series is described as follows: Anti-proliferative activity against breast cancer cell lines (collective statements). The format is cell-based. As to conditions: versus Compound 68. As for the experimental part:
as §1, §3

Series [12] has as its system SKBr3, MCF-7, A549, HT29 and PC3mm2 cell lines. The series is described as follows: Anti-proliferative activity, cell lines not specified. It counts as cell-based. As for the experimental part: as §1
The mark [13] stands for this setting: Table 2, read-out: Anti-Proliferation Activities of non-Noviosylated Olefin Dimers, A549.
Setting [14] is: Table 2, read-out: Anti-Proliferation Activities of non-Noviosylated Olefin Dimers, MCF7.
Where [15] appears, read: Table 2, read-out: Anti-Proliferation Activities of non-Noviosylated Olefin Dimers, HT29.
Where [16] appears, read: Table 2, read-out: Anti-Proliferation Activities of non-Noviosylated Olefin Dimers, PC3mm2.
Setting [17] is: Table 2, read-out: Anti-Proliferation Activities of non-Noviosylated Olefin Dimers, SKBr3.
Where [18] appears, read: Table 4, read-out: Anti-Proliferation Activities of Biaryl Dimers, A549.
[19] abbreviates: Table 4, read-out: Anti-Proliferation Activities of Biaryl Dimers, MCF-7.
Where [20] appears, read: Table 4, read-out: Anti-Proliferation Activities of Biaryl Dimers, HT29.
Setting [21] is: Table 4, read-out: Anti-Proliferation Activities of Biaryl Dimers, PC3mm2.
Setting [22] is: Table 4, read-out: Anti-Proliferation Activities of Biaryl Dimers, SKBr3.
Where [23] appears, read: Table 5, read-out: Anti-Proliferation Activities Non-Noviosylated Biaryl Dimers, MCF-7.
Setting [24] is: Table 5, read-out: Anti-Proliferation Activities Non-Noviosylated Biaryl Dimers, SKBr3.

The structures appear in SMILES notation. Where two headings read alike, the source gives them in different places.

For `Cc1c(OC2CCN(C)CC2)ccc2cc(NC(=O)CCC/C=C/CCCC(=O)Nc3cc4ccc(OC5CCN(C)CC5)c(C)c4oc3=O)c(=O)oc12` [Compound 32], the “degradation of Raf and Akt, Western blot” value in series [1] is “caused degradation of Raf and Akt”. In series [1], the “effect on Her2, Western blot” value is “no effect on Her2”. Moreover, the IC50 in series [2] (setting [13]) was 220 nM; in series [3] (setting [14]) it was 630 ± 30 nM; in series [4] (setting [15]), 240 nM; in [5] (setting [16]), 440 nM; in series [6] (setting [17]) it was 890 ± 10 nM; in [8] it was 200 to 400 nM. For the same compound, the “fold more active than any other dimer against prostate cancers” value in series [7] (versus other non-noviosylated dimers) is reported as 10-20 fold.

As to `COc1ccc(C(=O)Nc2cc3ccc(OC4OC(C)(C)C(OC)C(O)C4O)c(OC)c3oc2=O)cc1-c1cc(C(=O)Nc2cc3ccc(OC4OC(C)(C)C(OC)C(O)C4O)c(OC)c3oc2=O)ccc1OC` (stereo not shown) [Compound 70], the IC50 in series [2] (setting [18]) is 210 nM; in [3] (setting [19]), 880 ± 200 nM; in [4] (setting [20]) it was 270 nM; in series [5] (setting [21]), 270 nM; in series [6] (setting [22]) it was 910 ± 120 nM. Besides, the “fold more active against prostate cancer cell lines than 8-Me analog Compound 66” value in series [7] (versus Compound 66) is recorded as 100-150 fold.

Regarding `CO[C@H]1[C@H](OC(=O)c2ccc(C)[nH]2)[C@H](O)[C@@H](Oc2ccc3c(O)c(NC(=O)c4c[nH]c(C(=O)Nc5c(O)c6ccc(O[C@H]7OC(C)(C)[C@@H](OC)[C@H](OC(=O)c8ccc(C)[nH]8)[C@@H]7O)c(C)c6oc5=O)c4C)c(=O)oc3c2C)OC1(C)C` [coumermycin A1], the IC50 in [9] is 70000 nM. In series [9] (relative to novobiocin), the “fold increase in anti-proliferative activity over novobiocin” value is recorded as 10 fold.

In the case of `COc1ccc(C(=O)Nc2cc3ccc(OC4CCN(C)CC4)c(C)c3oc2=O)cc1-c1cc(C(=O)Nc2cc3ccc(OC4CCN(C)CC4)c(C)c3oc2=O)ccc1OC` [Compound 71], the values for the IC50 in [3] (setting [23]) and in series [6] (setting [24]) were 14200 ± 2300 nM and 4980 ± 700 nM, respectively. Besides, in [10], the “solubility in DMSO” value is “inherent insolubility in DMSO”.

In the case of `COc1ccc(C(=O)Nc2cc3ccc(OC4OC(C)(C)C(OC)C(O)C4O)c(C)c3oc2=O)cc1-c1cc(C(=O)Nc2cc3ccc(OC4OC(C)(C)C(OC)C(O)C4O)c(C)c3oc2=O)ccc1OC` (stereo not shown) [Compound 66], the “fold more active than Compound 68 against breast cancer cell lines” value in [11] was found to be 2 fold. Also, the IC50 in series [2] (setting [18]) came out at 36800 nM; in series [3] (setting [19]) it was 760 ± 140 nM; in [4] (setting [20]), 36500 nM; in series [5] (setting [21]) it was 36700 nM; in [6] (setting [22]), 1160 ± 210 nM.

With `CO[C@@H]1[C@@H](OC(N)=O)[C@@H](O)[C@H](Oc2ccc3c(O)c(NC(=O)c4ccc(O)c(CC=C(C)C)c4)c(=O)oc3c2C)OC1(C)C` [novobiocin], the IC50 in [9] is ~700000 nM.

Consider `Cc1c(OC2CCN(C)CC2)ccc2cc(NC(=O)CC/C=C/CCC(=O)Nc3cc4ccc(OC5CCN(C)CC5)c(C)c4oc3=O)c(=O)oc12` [Compound 29], for which the IC50 was determined as 5540 nM in series [2] (setting [13]); 270 ± 20 nM in [3] (setting [14]); 50 nM in series [4] (setting [15]); 4190 nM in series [5] (setting [16]); 150 ± 10 nM in series [6] (setting [17]). In series [12] (8-methyl coumarin series, versus Compound 32), the “fold more active than the 10-carbon linker (Compound 32)” value was 2-3 fold.

As to `COc1ccc(C(=O)Nc2cc3ccc(OCCCN(C)C)c(C)c3oc2=O)cc1-c1cc(C(=O)Nc2cc3ccc(OCCCN(C)C)c(C)c3oc2=O)ccc1OC` [Compound 72], the IC50 in series [2] (Table 5, read-out: Anti-Proliferation Activities Non-Noviosylated Biaryl Dimers, A549) stood at 93400 nM; in [3] (setting [23]), 11700 ± 1600 nM; in series [4] (Table 5, read-out: Anti-Proliferation Activities Non-Noviosylated Biaryl Dimers, HT29), 62700 nM; in series [5] (Table 5, read-out: Anti-Proliferation Activities Non-Noviosylated Biaryl Dimers, PC3mm2) it was 52300 nM; in series [6] (setting [24]) it was 9500 ± 1200 nM. In series [10], the “solubility in DMSO” value is reported as “inherent insolubility in DMSO”. For the same compound, the “fold less active than the corresponding noviosylated coumarin-containing analogs (Compounds 65-70)” value in series [12] (versus Compounds 65-70) was ~10 fold.
